Series [1] has as its system healthy, mature C57BL/6 male mice. Briefly: Object location memory test (recognition of the new location of a known object). The format is in vivo. To be noted: for dose with maximally expressed stimulating/activating effect on memory: mice, intragastric. The text has this:
Method. In order to study the action of substances on the memory of animals in which there had been no prior destruction of neurons, we used the test of recognition of the new location of a known object (“Object location memory test”, B. Kolb, K. Buhrmann, R. McDonald and R. Sutherland, Cereb. Cortex, 6 (1994), pp 664-680; D. Gaffan, Eur. J. Neurosci., 4 (1992), pp. 381-388; T. Steckler, W. H. I. M. Drinkenburgh, A. Sahgal and J. P. Aggleton, Prog. Neurobiol., 54 (1998), pp. 289-311). This Object Recognition Test is used to study memory. It provides a reliable, easy-to-use assessment tool for analyzing the effects of test compounds on memory in animals. The test can be applied to normal healthy animals (controls), as well as to animals that are models of various neurodegenerative diseases.
Experiments were performed on healthy, mature C57BL/6 male mice aged 3-5 months and weighing 20-24 g. Male mice were used to exclude any possible negative effects resulting from hormonal changes associated with […] in female mice. The animals were kept in a vivarium with 5 to a cage in 12/12 hours light regime with light from 08.00 to 20.00 and free access to water and food. The observation chamber was made from white opaque organic glass and measured 48×38×30 cm. Brown glass vials with a diameter of 2.7 cm and a height of 5.5 cm were used as the test objects. 2-3 minutes before introducing an animal, the chamber and test objects were rubbed with 85% alcohol. The animals were always placed in the centre of the chamber.
Dimebon was dissolved in distilled water and administered intragastrically 1 hour before training in a volume of 0.05 ml per 10 g of animal weight. A corresponding volume of solvent was administered to control animals.
On the first day, the mice were brought into the test room and acclimatized for 20-30 minutes. After this, each animal was placed for 10 min. in an empty behavior chamber, which had been pretreated with alcohol, for familiarization. The animal was then replaced in the cage and taken to the vivarium.
On the following day, the same mice were brought into the test room, acclimatized for 20-30 min. and then given dimebon solution intragastrically. One hour after administration of the substance, an animal was placed in the behavior chamber, on the bottom of which two identical objects for recognition (glass vials) were placed on a diagonal at a distance of 14.5 cm from the corners. The training time for each animal was 20 min. After 20 min. it was replaced in the cage and returned to the vivarium.
Testing was performed 48 hours after training. For this purpose, after acclimatization an animal was placed for 1 min. in the chamber for refamiliarization. After a minute it was removed and one object was placed on the bottom of the chamber in a location known to the animal, and the other in a new location. The time spent investigating each object separately over a period of 10 min. was recorded with an accuracy of 0.1 s using two electronic stopwatches. The behavior of the animals was observed through a mirror. Purposeful approach of an animal's nose towards an object at a distance of 2 cm or direct touching of an object with the nose was regarded as a positive investigative reaction.
Since significant variations in object investigation time between animals are observed in this test, we calculated the percent investigation time for each mouse using the formula tNl/(tKl+tNl)×100. The total time spent on investigation of the two objects was taken as 100%. The results were further processed using the Student t-test method.

For series [2], the system named is mice. As to the kind of experiment: Acute toxicity on intragastric administration. The format is in vivo. Conditions: intragastric administration. The procedure:
(§1) Investigation of the acute toxicity of Memantine® established that the death of the animals is observed after its intragastric administration in a dose of 300 mg/kg. The LD50 for mice on intragastric administration of Nootropil® (piracetam) is 8000 mg/kg.

In series [3] the test system is mice. To be noted: intragastric administration, source not stated; cited from earlier work.
For series [4] the following is noted: cited from earlier work.
The nature of series [5]: Acute toxicity on intragastric administration. To be noted: mouse, in vivo, po. The format is in vivo. The procedure: as §1
The test system of series [6] is rats with a model of AD. Conditions: cholinergic neurons damaged by chronic AF64A; cited from earlier work.
Series [7] deals with AD patients. Conditions: 20 mg three times daily; cited from earlier work.
Where [8] appears, read: dose 2.5 mg/kg, testing 48 hours after training.
The mark [9] stands for this setting: dose 0.01 mg/kg intragastrically 1 hour before training, testing 48 hours after training.
Where [10] appears, read: dose 0.1 mg/kg intragastrically, testing 48 hours after training.

Structures are written as SMILES.

Results on three compounds are retold here after patent US20100286188A1, “MEANS FOR IMPROVING COGNITIVE FUNCTIONS AND MEMORY BASED ON HYDROGENATED PYRIDO(4,3-B)INDOLES (VARIANTS), PHARMACOLOGICAL MEANS BASED THEREON AND METHOD FOR THE USE THEREOF” (priority 2006, published 2010).

`CC12CC3CC(C)(C1)CC(N)(C3)C2` [Memantine®, reference compound]: in series [1] (setting [8]), the “percent of time on investigation of the object in a known location” value is 40.6±6.9% and the “percent of time on investigation of the object in a new location” value is listed as 59.4±6.9%. In addition, in series [1], the “dose with maximally expressed stimulating/activating effect on memory” value was 2.5 mg/kg. In series [2], the “dose at which death of the animals is observed” value was 300 mg/kg.

In general, LD50 refers to the dose expected to kill half of the subjects tested. Turning to `NC(=O)CN1CCCC1=O` [Nootropil® (piracetam), piracetam], in series [3], the LD50 is 8000 mg/kg. Moreover, the “doses with stimulating effect on learning and memory” value in series [4] (active and passive avoidance conditioned response tests, depending on the test) was 200 to 500 mg/kg. In addition, the “maximally effective dose that stimulated learning and memory” value in series [4] (data from the literature) is 200 to 500 mg/kg.

In the case of `Cc1ccc2c(c1)c1c(n2CCc2ccc(C)nc2)CCN(C)C1` [dimebon, 2,8-dimethyl-5-[2-(6-methyl-3-pyridyl)ethyl]-2,3,4,5-tetrahydro-1H-pyrido[4,3-b]indole], the “stimulating effect on memory, times more active than Nootropil (piracetam)” value in series [1] (compared with literature doses of Nootropil) is given as 2000-5000 times. Also, the “memory-enhancing activity relative to Memantine (times higher)” value was determined as 250 times in series [1] (comparing doses with essentially the same effect (0.01 vs 2.5 mg/kg)) and 25 times in series [1] (comparing maximally effective doses (0.1 vs 2.5 mg/kg)). Besides, the “percent of time on investigation of the object in the known location” value in series [1] (setting [9]) stood at 42.5±4.8%; in series [1] (setting [10]) it was 37.6%. The “percent of time on investigation of the object in the new location” value in series [1] (setting [9]) came to 57.5±4.8%; in series [1] (setting [10]) it was 62.4±6.5%. In series [1] (dose increased to 0.25 mg/kg), the “activating effect on memory” value is “activating effect on memory disappears”. Also, in series [1], the “dose with maximally expressed stimulating/activating effect on memory” value was 0.1 mg/kg. Also, the “stimulating effect on memory, times more active than Memantine” value in series [1] (overall conclusion) is given as 25-250 times. Also, in series [5], the LD50 is more than 1000 mg/kg. In addition, in series [6], the “results in active avoidance conditioned reflex experiment versus control animals” value is listed as “significantly better results”. Further, the “condition of AD patients (memory and cognitive functions)” value in series [7] is recorded as “improvement in the condition of AD patients”.
